For assay [1], the system named is Fcf1 (recombinant dTDP-D-GIcO reductase). The experiment in a line: Divalent cation requirements of Fcf1 (effects of cations on enzyme activity). The format is biochemical, E. coli O52. The conditions noted are these: for Transformation rate (%): in the presence of 5 mM divalent ion chloride, 100 without ion; for influence on conversion ratio / inhibition to enzyme activity: 5 mM divalent ion chloride. As to the method:
20 μl reactions in 0.5 ml centrifugal tube contain 2 mM dTDP-D-Glco, 3 mM NADPH, 50 mM Tris-HCl buffer (pH7.4), 5 mM divalent ion chloride and 0.25 μM recombinant dTDP-D-GIcO reductase protein purified in example 2. The reactions are proceeded at certain temperatures for 2 hours. Then add chloroform of equal volume to extract protein. The aqueous phase is detected by Beckman Coulter P/ACE MDQ capillary electrophoresis.

For assay [2], the target named is T1, Fcf2 (recombinant dTDP-D-Glcfucofuranose mutase) (Escherichia coli, UniProt Q6E7F1).
T1 construct: The entire ORF encodes a protein composed of 377 amino acids; His6 (N); made in house; host or cells: E. coli BL21
T1 sequence (Q6E7F1 whole entry): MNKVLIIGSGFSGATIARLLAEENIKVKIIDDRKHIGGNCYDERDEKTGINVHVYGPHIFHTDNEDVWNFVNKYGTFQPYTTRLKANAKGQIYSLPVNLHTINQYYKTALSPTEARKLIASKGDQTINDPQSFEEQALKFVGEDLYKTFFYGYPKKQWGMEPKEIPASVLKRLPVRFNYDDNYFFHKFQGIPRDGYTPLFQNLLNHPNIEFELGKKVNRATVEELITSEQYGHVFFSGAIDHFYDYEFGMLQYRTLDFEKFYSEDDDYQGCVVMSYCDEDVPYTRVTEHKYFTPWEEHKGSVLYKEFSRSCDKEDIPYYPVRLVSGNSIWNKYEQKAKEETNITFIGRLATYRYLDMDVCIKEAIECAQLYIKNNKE
Kind of assay: Divalent cation requirements of Fcf2 (effects of cations on enzyme activity). Format: biochemical, E. coli O52. The conditions noted are these: for Transformation rate (%): in the presence of 5 mM divalent ion, 9.5 without ion. The protocol: 25 μl reactions in 0.5 ml centrifugal tube contain 2 mM dTDP-D-fucose, 50 mM Tris-HCl buffer (pH 7.4) 5 mM divalent ion chloride and 3.9 μM recombinant dTDP-D-Glcfucofuranose mutase protein purified in example 2. The reactions are proceeded at certain temperature for 3 hours. Then add chloroform of equal volume to extract protein. The aqueous phase is detected by Beckman Coulter P/ACE MDQ capillary electrophoresis.

As to `[Ca+2].[Cl-].[Cl-]` [Ca^2+, CaCl2], the figures for the “Transformation rate (%)” value in assay [1] and in assay [2] were 98.1% and 9.6%, respectively.

As to `[Cl-].[Cl-].[Co+2]` [Co^2+, CoCl2], the “Transformation rate (%)” value in assay [1] stood at 89.2%; in assay [2], 8.8%.

`[Cl][Cu][Cl]` [Cu^2+, CuCl2]: the “influence on conversion ratio / inhibition to enzyme activity” value in assay [1] was “highest inhibition”. The “Transformation rate (%)” value was found to be 11.8% in assay [1] and 0% in assay [2]. Besides, the “inhibition to enzyme activity” value in assay [2] (5 mM divalent ion) was “obvious inhibition”.

In the case of `[Cl][Fe][Cl]` [Fe^2+, FeCl2], the “Transformation rate (%)” value in assay [1] was found to be 90.5%; in assay [2], 9.1%.

As to `[Cl-].[Cl-].[Mg+2]` [Mg^2+, MgCl2], in assay [1], the “influence on conversion ratio / inhibition to enzyme activity” value was “no influence” and the “Transformation rate (%)” value was 100%. In assay [2], the “Transformation rate (%)” value is 9.7%.

For `[Cl][Mn][Cl]` [Mn^2+, MnCl2], in assay [1], the “influence on conversion ratio / inhibition to enzyme activity” value is recorded as “no influence” and the “Transformation rate (%)” value is reported as 100%. In addition, the “Transformation rate (%)” value in assay [2] is reported as 5.4%.

Source of the values: patent US20120041185A1, “dTDP-BETA-D-FUCOFURANOSE, ITS PREPARATION METHOD AND USE” (TIANJIN BIOCHIP TECHNOLOGY CORPORATION, priority 2007, published 2012).
